Several values for one entry are separate records, joined by “and”; a condition that tells them apart may be missing. Identical values can stand only once. Like-named read-outs stand apart in the source and are kept apart here.
Legend:
Human recombinant MAOA = Human recombinant MAOA (Homo sapiens (Human), UniProt P21397); assay: MAOA in vitro activity (MAO-Glo); assay type: biochemical
human recombinant MAOB = human recombinant MAOB (Homo sapiens (Human), UniProt P27338); assay: MAOB in vitro activity (MAO-Glo); assay type: biochemical
[1] = tested on: CD86 expression in leukemia cell line MV4-11; assay: CD86 gene expression activation test (quantitative real-time PCR); assay type: cell-based, human; settings: CD86 activation fold, 24 h
Procedure: CD86 Gene Expression Activation Test: Experimental Principle:
Quantitative Real-time PCR is a method for measuring the total amount of the product after each polymerase chain reaction (PCR) cycle by using fluorescent chemicals in a DNA amplification reaction. Quantitative analysis of a specific DNA sequence in a sample to be tested was conducted by internal reference method or external reference method. There is a linear relationship between the Ct value of the template and the initial copy number of the template during the exponential phase of PCR amplification, which serves as a basis for quantification.
• 1. 350 w/mL MV4-11 cells were accurately counted in a 12-well plate at 900 μL per well. • 2. […] The sample was transferred to a 1.5 mL EP tube, centrifuged at 2000 rpm for 3 min, and the supernatant was removed. […] of trizol was added for lysis and allowed to stand for 3 min. • 4. […] The supernatant was removed, and the EP tube was air-dried in a fume hood. 20-30 μL of RNase inactivated deionized water was added and mixed to measure the RNA concentration. • 8. […] 100 μL of deionized water was added to the EP tube and mixed. • 10. […]

leukemia cells MV4-11 = assay: Inhibitory activity on growth by MTS method; assay type: cell-based; settings: Homo sapiens
[2] = tested on: human acute myeloid leukemia MV4-11 subcutaneous transplantation tumor; assay: Growth of subcutaneous transplantation tumor in nude mice; assay type: in vivo, Balb/c nude mice; settings: 10 mg/kg qd p.o., 21 days
Excerpt: Example 3 Evaluation of Chronic Efficacy at the Animal Level:
Inhibitory Effect of LSD1 Inhibitor on the Growth of Subcutaneous Transplantation Tumor in Nude Mice of Human Acute Myeloid Leukemia MV4-11 […]
Animals: Balb/c nude mice, female, weighing 17-20 g, were purchased from Beijing Weitong Lihua Experimental Animal Technology Co., Ltd., and the number of animals per group was 5.
Cell line: MV4-11 cell line was used to inoculate at the right axilla of the nude mice, and the inoculation amount was 5×10^6/animal. The experiment can start after the transplanted tumor was formed.
For female nude mice weighing 20±3 g, MV4-11 cells were inoculated into the right axilla of nude mice at a inoculation amount of 5×10^6/mouse. After tumor formation, the diameter of the transplanted tumor was measured with a vernier caliper. And after the tumor has grown into 100-300 mm^3, the animals were divided into model control group and drug-administered group according to body weight and tumor volume, with 5 mouse in each group. The model control group was given an equal amount of blank solvent. Oral gavage was used daily after grouping for 21 days.
Note: Wc: tumor weight of control group, WT: tumor weight of treatment group.
Data processing: Data were expressed as mean±standard deviation, and statistical methods were T-TEST two-tailed analysis for significant analysis.

Human recombinant LSD1 = Human recombinant LSD1 (Homo sapiens (Human), UniProt O60341)
Excerpt: LSD1 In Vitro Activity Assay
Instrument: microplate reader Envision™ (PerkinElmer, USA).

in vivo = settings: mouse

human recombinant MAOB, sequence (P27338 whole entry): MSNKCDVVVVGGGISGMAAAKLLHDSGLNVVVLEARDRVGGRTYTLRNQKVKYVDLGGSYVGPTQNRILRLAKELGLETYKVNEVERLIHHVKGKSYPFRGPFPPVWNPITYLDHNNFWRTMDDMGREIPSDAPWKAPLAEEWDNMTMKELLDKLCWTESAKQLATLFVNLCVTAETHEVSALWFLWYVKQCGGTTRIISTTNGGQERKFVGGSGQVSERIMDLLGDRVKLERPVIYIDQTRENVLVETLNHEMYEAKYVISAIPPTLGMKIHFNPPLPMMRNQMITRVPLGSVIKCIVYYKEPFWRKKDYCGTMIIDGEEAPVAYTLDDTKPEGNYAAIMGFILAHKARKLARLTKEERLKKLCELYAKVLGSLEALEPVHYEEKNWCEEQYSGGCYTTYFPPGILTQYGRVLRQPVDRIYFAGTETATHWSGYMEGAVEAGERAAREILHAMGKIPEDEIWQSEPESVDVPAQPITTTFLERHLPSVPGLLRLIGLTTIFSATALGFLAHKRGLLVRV
Human recombinant MAOA, sequence (P21397 whole entry): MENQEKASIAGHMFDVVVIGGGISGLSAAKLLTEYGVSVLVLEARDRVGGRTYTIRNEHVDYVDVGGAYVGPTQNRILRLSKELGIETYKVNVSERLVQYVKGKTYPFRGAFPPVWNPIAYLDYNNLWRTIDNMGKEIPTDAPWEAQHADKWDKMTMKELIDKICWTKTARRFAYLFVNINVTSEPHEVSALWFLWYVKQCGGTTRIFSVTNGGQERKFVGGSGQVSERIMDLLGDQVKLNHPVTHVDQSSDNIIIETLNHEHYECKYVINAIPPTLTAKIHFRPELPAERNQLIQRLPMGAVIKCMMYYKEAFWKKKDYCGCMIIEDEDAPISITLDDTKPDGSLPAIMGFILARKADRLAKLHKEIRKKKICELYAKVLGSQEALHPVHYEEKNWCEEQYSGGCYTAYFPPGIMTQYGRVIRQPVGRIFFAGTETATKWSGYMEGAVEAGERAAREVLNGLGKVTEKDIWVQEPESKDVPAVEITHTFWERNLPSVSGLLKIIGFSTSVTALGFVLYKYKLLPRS

In the case of `O=C(O)c1ccc(CN2CCC(CN[C@@H]3C[C@H]3c3ccccc3)CC2)cc1` [GSK-2879552], the IC50 (Human recombinant MAOA) is reported as > 100 µM, the IC50 (human recombinant MAOB) is reported as > 100 µM and the “Activation ratio (10 nM)” value ([1]; MV4-11, 10 nM) is reported as 1.79 ± 0.37. For the same compound, the “Activation ratio (100 nM)” value ([1]; MV4-11, 100 nM) was 9.76 ± 2.23, the IC50 (leukemia cells MV4-11; 72 h, MV4-11, 3 days, read-out: MTS 3 D) was > 20000 nM and the IC50 (leukemia cells MV4-11; 240 h, MV4-11, 10 days, read-out: MTS 10 D) was 1030 ± 360 nM. The “Tumor inhibition rate (%)” value [2] was 51.96%, the “Tumor weight (g) mean ± SD” value [2] was 0.55 ± 0.55 g and the “Tumor weight (g), individual animals 1-5” value [2] was 0.22 g and 1.19 g and 0.00 g and 1.25 g and 0.10 g. The IC50 (Human recombinant LSD1) was 1220 ± 327 nM, the AUC(0-inf) (in vivo; iv) was 4420 ng·h/mL and the AUC(0-t) (in vivo; iv) was 4410 ng·h/mL. It also gave a Cmax (in vivo; iv) of 7740 ng/mL, an MRT inf (in vivo; iv) of 0.96 h and a Tmax (in vivo; iv) of 0.083 h. For the same compound, the Vd (in vivo; iv) was 2.18 L/kg, the clearance (in vivo; iv) was 37.7 mL/min/kg and the half-life (in vivo; iv) was 4.36 h. It also gave an AUC(0-inf) (in vivo; po) of 5360 ng·h/mL, an AUC(0-t) (in vivo; po) of 5350 ng·h/mL and a Cmax (in vivo; po) of 9180 ng/mL. It also gave an MRT inf (in vivo; po) of 1.18 h, a Tmax (in vivo; po) of 0.167 h and a bioavailability (in vivo; po) of 60.7%. The half-life (in vivo; po) was 4.24 h.
